Measurements: patent US20240197694A1, “MODIFIED PROTEINS AND PROTEIN BINDERS” (Cullgen (Shanghai), Inc., priority 2021, published 2024)

Biological target: T1, DCAF1 (1058-1396) (Homo sapiens, UniProt Q9Y4B6)
T1 construct: a fragment of a DCAF1 protein that includes amino acid residues A1058 to E1396; His6 (N, cleaved yes); made in house; host or cells: Sf9 insect cells (Bac-to-Bac baculovirus, pFastBacHT vector)
Assay: Surface plasmon resonance (SPR) binding assay, compound binding to DCAF1
Conditions: immobilized DCAF1 (1058-1396), steady state affinity model, 25° C.
Method: Binding affinities of specific exemplary compounds to DCAF1 (1058-1396), which is a fragment of a DCAF1 protein that includes amino acid residues A1058 to E1396 were determined by a surface plasmon resonance (SPR) assay. Briefly, purified DCAF1 (1058-1396) proteins were immobilized at a density of 9,000-11,000 resonance units (RUs) on a CMS sensor chip. Sensorgrams were recorded at different concentrations of compounds in multi-cycle kinetic format. Data were analyzed using a steady state affinity model through Biacore Evaluation Software to provide equivalent dissociation constants (Kd).
Binding affinities of compounds to DCAF1 were determined by a surface plasmon resonance (SPR) assay. Purified DCAF1 (1058-1396) proteins were immobilized on a CMS sensor chip, and a dose range of compound solutions were injected in multi-cycle kinetic format. Data were analyzed using a steady state model to provide equivalent dissociation constants (Kd).
Protein Expression and Purification: Human DCAF1 (1058-1396) (UniPro: Q9Y4B6) coding sequences were cloned into pFastBacHT vector and were expressed in Sf9 cells using Bac-to-Bac baculovirus expression system (Thermo Fisher Scientific). The expression construct for DCAF1 (1058-1396) included a N-terminal His6-tag to facilitate the purification. DCAF1 (1058-1396) proteins were obtained from supernatants of cell lysates and purified through sequential application of Ni affinity chromatography (Ni-NTA column, Bio-Rad), Tag removal using TEV protease, and size-exclusion chromatography (Superdex 200 column, GE Healthcare).
Surface plasmon resonance (SPR) binding assays: SPR studies were performed on a Biacore X100 plus or T200 instrument (GE Healthcare). Immobilization of purified DCAF1 (1058-1396) was carried out at 25° C. using a CMS sensor chip. The surface was pre-equilibrated in HBS-EP running buffer (10 mM HEPES, pH 7.4, 150 mM NaCl, 3 mM EDTA, 0.05% P20), before being activated with EDC/NHS. DCAF1 (1058-1396) was immobilized through amino groups to a density of 9,000-12,000 resonance units (RUs) on flow cell channel 2 (FC2), whereas flow cell channel 1 (FC1) was used as reference. Both DCAF1 immobilized and reference surfaces were deactivated with 1 M ethanolamine.
Interaction experiments were performed at 25° C. The compounds were prepared and serially diluted in HBS-EP running buffer containing final 2% DMSO (6-point two-fold serial dilution, 100 μM -3.125 μM final concentration of compounds). Compound Solutions were injected individually in multi-cycle kinetic format without regeneration (flow rate 30 μL/min, association time 60 s, dissociation time 60 s). Sensorgrams from reference surfaces and blank injections were subtracted from the raw data (double-referenced) and the data was solvent-corrected prior to analysis. Data were analyzed using a steady state affinity model through Biacore Evaluation Software to provide equivalent dissociation constants (Kd).

T1 sequence (Q9Y4B6 1058-1396): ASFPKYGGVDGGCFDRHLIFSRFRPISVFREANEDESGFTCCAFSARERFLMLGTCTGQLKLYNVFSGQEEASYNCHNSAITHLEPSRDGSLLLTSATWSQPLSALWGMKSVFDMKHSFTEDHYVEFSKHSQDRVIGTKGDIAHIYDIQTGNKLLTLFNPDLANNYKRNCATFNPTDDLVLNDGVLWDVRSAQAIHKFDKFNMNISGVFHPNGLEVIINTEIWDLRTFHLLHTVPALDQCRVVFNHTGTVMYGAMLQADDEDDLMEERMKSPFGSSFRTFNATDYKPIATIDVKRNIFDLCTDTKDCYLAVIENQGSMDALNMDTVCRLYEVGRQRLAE

First: Cc1cc(N)n(CC(=O)N(C)CC2Cc3ccccc3CN2C)n1 (centres unmarked) [CPD-093, 2-(5-amino-3-methyl-1H-pyrazol-1-yl)-N-methyl-N-((2-methyl-1,2,3,4-tetrahydroisoquinolin-3-yl)methyl)acetamide]
Second: CN(CC1Cc2ccccc2CN1C)C(=O)/C=C/c1cc(CO)cs1 (centres unmarked) [CPD-097, (E)-3-(4-(hydroxymethyl)thiophen-2-yl)-N-methyl-N-((2-methyl-1,2,3,4-tetrahydroisoquinolin-3-yl)methyl)acrylamide]
The Kd of the first is lower: 40 to 70 µM for the first, greater than 100 µM for the second. The first binds more tightly here.

Going from `Cc1ccc2c(c1)C1CN(C)CCC1N2C(=O)c1cc(F)ccc1Br` (centres unmarked) [CPD-065, (2-bromo-5-fluorophenyl) (2,8-dimethyl-1,2,3,4,4a,9b-hexahydro-5H-pyrido[4,3-b]indol-5-yl)methanone] to `Cc1ccc2c(c1)C1CN(C)CCC1N2C(=O)c1nc(Cl)ccc1Cl` (centres unmarked) [CPD-066, (3,6-dichloropyridin-2-yl) (2,8-dimethyl-1,2,3,4,4a,9b-hexahydro-5H-pyrido[4,3-b]indol-5-yl)methanone], the Kd rises from no more than 40 µM to greater than 100 µM. The first binds more tightly here.

`C#CCNC(=O)CCN1CCc2[nH]c3ccc(F)cc3c2C1` [CPD-052, 3-(8-fluoro-1,3,4,5-tetrahydro-2H-pyrido[4,3-b]indol-2-yl)-N-(prop-2-yn-1-yl)propanamide] and `COC(CN1CCc2[nH]c3ccc(F)cc3c2C1)OC` [CPD-051, 2-(2,2-dimethoxyethyl)-8-fluoro-2,3,4,5-tetrahydro-1H-pyrido[4,3-b]indole] cannot be ordered by Kd: 40 to 70 µM for the first, no more than 40 µM for the second.

`Cn1cccc1CNCc1ccccn1` [CPD-003, 1-(1-methyl-1H-pyrrol-2-yl)-N-(pyridin-2-ylmethyl)methanamine] and `COc1cc(CNCc2cnc[nH]2)ccn1` [CPD-025, N-((1H-imidazol-5-yl)methyl)-1-(2-methoxypyridin-4-yl) methanamine] cannot be ordered by Kd: greater than 100 µM for the first, greater than 100 µM for the second.

`Cc1ccc2c(c1)C1CN(C)CCC1N2S(=O)(=O)c1c([N+](=O)[O-])ccc(C)c1C` (centres unmarked) [CPD-078, 5-((2,3-dimethyl-6-nitrophenyl)sulfonyl)-2,8-dimethyl-2,3,4,4a,5,9b-hexahydro-1H-pyrido[4,3-b]indole] and `Cc1ccc2c(c1)C1CN(C)CCC1N2S(=O)(=O)c1ccc(C(=O)C(C)C)cc1` (centres unmarked) [CPD-077, 1-(4-((2,8-dimethyl-1,2,3,4,4a,9b-hexahydro-5H-pyrido[4,3-b]indol-5-yl)sulfonyl)phenyl)-2-methylpropan-1-one] cannot be ordered by Kd: greater than 100 µM for the first, greater than 100 µM for the second.

`O=C(CCN1CCc2[nH]c3ccc(Cl)cc3c2C1)N1CCOCC1` [CPD-049, 3-(8-chloro-1,3,4,5-tetrahydro-2H-pyrido[4,3-b]indol-2-yl)-1-morpholinopropan-1-one] and `O=C(CN1CCc2[nH]c3ccc(Cl)cc3c2C1)N1CCOCC1` [CPD-044, 2-(8-chloro-1,3,4,5-tetrahydro-2H-pyrido[4,3-b]indol-2-yl)-1-morpholinoethan-1-one] cannot be ordered by Kd: no more than 40 µM for the first, 40 to 70 µM for the second.

`Cc1cccc2c1[C@H]1CN(C)CC[C@H]1N2` (racemic) [CPD-041, cis-2,9-dimethyl-2,3,4,4a,5,9b-hexahydro-1H-pyrido[4,3-b]indole] and `Cc1ccc2c(c1)[C@H]1CN(C)CC[C@H]1N2` (racemic) [CPD-033, cis-2,8-dimethyl-2,3,4,4a,5,9b-hexahydro-1H-pyrido[4,3-b]indole] cannot be ordered by Kd: greater than 100 µM for the first, greater than 100 µM for the second.

`Clc1cc(CNCc2cnc[nH]2)cc2c1OCO2` [CPD-030, N-((1H-imidazol-5-yl)methyl)-1-(7-chlorobenzo[d][1,3]dioxol-5-yl)methanamine] and `COc1cc(C)cc(CNCc2cnc[nH]2)c1` [CPD-028, N-((1H-imidazol-5-yl)methyl)-1-(3-methoxy-5-methylphenyl) methanamine] cannot be ordered by Kd: greater than 100 µM for the first, greater than 100 µM for the second.

`CCN1CCc2[nH]c3ccccc3c2C1` [CPD-043, 2-ethyl-2,3,4,5-tetrahydro-1H-pyrido[4,3-b]indole] and `O=C(CCN1CCc2[nH]c3ccccc3c2C1)N1CCOCC1` [CPD-048, 1-morpholino-3-(1,3,4,5-tetrahydro-2H-pyrido[4,3-b]indol-2-yl)propan-1-one] cannot be ordered by Kd: 40 to 70 µM for the first, no more than 40 µM for the second.

`CCn1nc(C2CC2)cc1C(=O)N1c2ccc(C)cc2C2CN(C)CCC21` (centres unmarked) [CPD-071, (3-cyclopropyl-1-ethyl-1H-pyrazol-5-yl)(2,8-dimethyl-1,2,3,4,4a,9b-hexahydro-5H-pyrido[4,3-b]indol-5-yl)methanone] and `COc1nccc(C(=O)N2c3ccc(C)cc3C3CN(C)CCC32)n1` (centres unmarked) [CPD-063, (2,8-dimethyl-1,2,3,4,4a,9b-hexahydro-5H-pyrido[4,3-b]indol-5-yl)(2-methoxypyrimidin-4-yl)methanone] cannot be ordered by Kd: greater than 100 µM for the first, greater than 100 µM for the second.

First: COc1cccc2c3c([nH]c12)CCN(C)C3 [CPD-047, 6-methoxy-2-methyl-2,3,4,5-tetrahydro-1H-pyrido[4,3-b]indole]
Second: CN1CCc2c(c3ccccc3n2Cc2ccccc2)C1 [CPD-058, 5-benzyl-2-methyl-2,3,4,5-tetrahydro-1H-pyrido[4,3-b]indole]
The Kd of the first is higher: greater than 100 µM for the first, 70 to 100 µM for the second.

First: CN1Cc2ccccc2CC1CNC(=O)Nc1ccc2c(c1)nnn2C (centres unmarked) [CPD-096, 1-((2-methyl-1,2,3,4-tetrahydroisoquinolin-3-yl)methyl)-3-(1-methyl-1H-benzo [d][1,2,3]triazol-5-yl)urea]
Second: CN(C)C(=O)c1ccc(NCC2Cc3ccccc3CN2C)nc1 (centres unmarked) [CPD-089, N,N-dimethyl-6-(((2-methyl-1,2,3,4-tetrahydroisoquinolin-3-yl)methyl)amino)nicotinamide]
The Kd of the first is higher: greater than 100 µM for the first, 70 to 100 µM for the second. The second binds more tightly here.

`Cc1ccc2[nH]c3c(c2c1)CN(CCc1cnn[nH]1)CC3` [CPD-013, 2-(2-(1H-1,2,3-triazol-5-yl)ethyl)-8-methyl-2,3,4,5-tetrahydro-1H-pyrido[4,3-b]indole] and `Clc1ccc2[nH]c3c(c2c1)CN(CCc1cnn[nH]1)CC3` [CPD-008, 2-(2-(1H-1,2,3-triazol-5-yl)ethyl)-8-chloro-2,3,4,5-tetrahydro-1H-pyrido[4,3-b]indole] fall in the same range of Kd: 40 to 70 µM for the first, 40 to 70 µM for the second.

Compared with `COC(=O)NCCN1CCc2ccccc2C1` [CPD-023, methyl (2-(3,4-dihydroisoquinolin-2(1H)-yl)ethyl)carbamate], `CC(C)N1CCc2c(c3ccccc3n2CC(=O)O)C1` [CPD-010, 2-(2-isopropyl-1,2,3,4-tetrahydro-5H-pyrido[4,3-b]indol-5-yl)acetic acid] is higher in Kd: 70 to 100 µM for the first, greater than 100 µM for the second. The first binds more tightly here.

`Cc1ccc(CNCc2cnc[nH]2)o1` [CPD-024, N-((1H-imidazol-5-yl)methyl)-1-(5-methylfuran-2-yl) methanamine] and `O=c1cc(CNCc2cnc[nH]2)cc[nH]1` [CPD-026, 4-((((1H-imidazol-5-yl)methyl)amino)methyl)pyridin-2(1H)-one] cannot be ordered by Kd: greater than 100 µM for the first, greater than 100 µM for the second.

`Cc1ccc2c(c1)C1CN(C)CCC1N2C(=O)/C=C/c1ccccc1` (centres unmarked) [CPD-083, (E)-1-(2,8-dimethyl-1,2,3,4,4a,9b-hexahydro-5H-pyrido [4,3-b]indol-5-yl)-3-phenylprop-2-en-1-one] and `Cc1ccc2c(c1)C1CN(C)CCC1N2C(=O)/C=C/c1cccc(C(F)(F)F)c1` (centres unmarked) [CPD-075, (E)-1-(2,8-dimethyl-1,2,3,4,4a,9b-hexahydro-5H-pyrido [4,3-b]indol-5-yl)-3-(3-(trifluoromethyl)phenyl)prop-2-en-1-one] cannot be ordered by Kd: greater than 100 µM for the first, greater than 100 µM for the second.

`OCCOc1ccc(CNCc2cnc[nH]2)cc1` [CPD-031, 2-(4-((((1H-imidazol-5-yl)methyl)amino)methyl)phenoxy)ethan-1-ol] and `Cc1ccc2c(c1)C1CN(C)CCC1N2C(=O)c1cc2c(C)nn(-c3ccc(Cl)cc3)c2s1` (centres unmarked) [CPD-074, (1-(4-chlorophenyl)-3-methyl-1H-thieno[2,3-c]pyrazol-5-yl)(2,8-dimethyl-1,2,3,4,4a,9b-hexahydro-5H-pyrido[4,3-b]indol-5-yl)methanone] cannot be ordered by Kd: greater than 100 µM for the first, greater than 100 µM for the second.

Work on `Cc1ccc2c(c1)C1CN(C)CCC1N2C(=O)/C(=C/c1ccc(Cl)cc1)c1ccc(F)cc1` (centres unmarked) [CPD-088, (E)-3-(4-chlorophenyl)-1-(2,8-dimethyl-1,2,3,4,4a,9b-hexahydro-5H-pyrido[4,3-b]indol-5-yl)-2-(4-fluorophenyl)prop-2-en-1-one] yielded a Kd of 40 to 70 µM.
